The values below are quoted from earlier work in US20120269803A1, “SUBSTITUTED BENZOSULPHONAMIDES” (BAYER INTELLECTUAL PROPERTY GMBH, priority 2009, published 2012).

In data set [1] the test system is colon cancer. The note with it: oral treatment, mouse models, literature [18].
For data set [2] the following is noted: phase I/II clinical trials in humans, literature [19].
For data set [3], the system named is MEK1/2. The note with it: MEK1/2 inhibitor, literature [17].

SMILES strings stand for the structures.

For `O=C(NOCC1CC1)c1ccc(F)c(F)c1Nc1ccc(I)cc1Cl` [PD184352], the “colon cancer growth in vivo” value in data set [1] was “inhibit colon cancer growth in vivo”. The clinical efficacy result in data set [2] was “insufficient efficacy”. Besides, the IC50 result in data set [3] was “low nanomolar range”.
